Measurements: ChEMBL document CHEMBL1135312, “N-Aroyl-L-phenylalanine derivatives as VCAM/VLA-4 antagonists” (Bioorg Med Chem Lett, 2002)

Key:
Integrin alpha-4/beta-1 [1] = molecular target: T1, Integrin alpha-4/beta-1 (Homo sapiens, UniProt P05556+P13612); assay: Inhibitory binding concentration against VCAM/VLA-4 in Ramos.; assay type: protein-complex assay
Integrin alpha-4/beta-1 [2] = molecular target: T1, Integrin alpha-4/beta-1; assay: Inhibitory binding concentration against VCAM/VLA-4 in ELISA.; assay type: protein-complex assay

T1 sequence (P05556 whole entry): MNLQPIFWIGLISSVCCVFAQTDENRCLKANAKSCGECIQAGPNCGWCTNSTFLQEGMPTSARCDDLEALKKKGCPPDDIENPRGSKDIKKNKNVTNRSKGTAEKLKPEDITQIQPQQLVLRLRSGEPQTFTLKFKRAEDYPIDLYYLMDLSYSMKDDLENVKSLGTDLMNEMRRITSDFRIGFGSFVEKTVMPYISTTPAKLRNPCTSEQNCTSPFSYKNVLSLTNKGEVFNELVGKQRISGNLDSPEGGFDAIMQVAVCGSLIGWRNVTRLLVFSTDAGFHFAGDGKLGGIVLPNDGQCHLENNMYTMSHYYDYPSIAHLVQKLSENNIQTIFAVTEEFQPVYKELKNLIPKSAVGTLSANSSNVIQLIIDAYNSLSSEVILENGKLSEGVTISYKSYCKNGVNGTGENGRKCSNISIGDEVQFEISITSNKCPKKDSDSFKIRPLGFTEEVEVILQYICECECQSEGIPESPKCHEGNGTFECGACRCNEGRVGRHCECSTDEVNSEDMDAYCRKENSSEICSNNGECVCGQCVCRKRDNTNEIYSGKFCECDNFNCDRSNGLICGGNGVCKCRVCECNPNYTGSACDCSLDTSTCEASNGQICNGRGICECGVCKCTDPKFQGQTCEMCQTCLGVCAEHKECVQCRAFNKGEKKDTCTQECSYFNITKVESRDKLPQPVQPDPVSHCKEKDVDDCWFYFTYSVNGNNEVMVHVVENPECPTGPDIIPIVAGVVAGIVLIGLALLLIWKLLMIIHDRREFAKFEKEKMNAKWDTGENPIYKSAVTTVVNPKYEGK
T1 sequence (P13612 whole entry): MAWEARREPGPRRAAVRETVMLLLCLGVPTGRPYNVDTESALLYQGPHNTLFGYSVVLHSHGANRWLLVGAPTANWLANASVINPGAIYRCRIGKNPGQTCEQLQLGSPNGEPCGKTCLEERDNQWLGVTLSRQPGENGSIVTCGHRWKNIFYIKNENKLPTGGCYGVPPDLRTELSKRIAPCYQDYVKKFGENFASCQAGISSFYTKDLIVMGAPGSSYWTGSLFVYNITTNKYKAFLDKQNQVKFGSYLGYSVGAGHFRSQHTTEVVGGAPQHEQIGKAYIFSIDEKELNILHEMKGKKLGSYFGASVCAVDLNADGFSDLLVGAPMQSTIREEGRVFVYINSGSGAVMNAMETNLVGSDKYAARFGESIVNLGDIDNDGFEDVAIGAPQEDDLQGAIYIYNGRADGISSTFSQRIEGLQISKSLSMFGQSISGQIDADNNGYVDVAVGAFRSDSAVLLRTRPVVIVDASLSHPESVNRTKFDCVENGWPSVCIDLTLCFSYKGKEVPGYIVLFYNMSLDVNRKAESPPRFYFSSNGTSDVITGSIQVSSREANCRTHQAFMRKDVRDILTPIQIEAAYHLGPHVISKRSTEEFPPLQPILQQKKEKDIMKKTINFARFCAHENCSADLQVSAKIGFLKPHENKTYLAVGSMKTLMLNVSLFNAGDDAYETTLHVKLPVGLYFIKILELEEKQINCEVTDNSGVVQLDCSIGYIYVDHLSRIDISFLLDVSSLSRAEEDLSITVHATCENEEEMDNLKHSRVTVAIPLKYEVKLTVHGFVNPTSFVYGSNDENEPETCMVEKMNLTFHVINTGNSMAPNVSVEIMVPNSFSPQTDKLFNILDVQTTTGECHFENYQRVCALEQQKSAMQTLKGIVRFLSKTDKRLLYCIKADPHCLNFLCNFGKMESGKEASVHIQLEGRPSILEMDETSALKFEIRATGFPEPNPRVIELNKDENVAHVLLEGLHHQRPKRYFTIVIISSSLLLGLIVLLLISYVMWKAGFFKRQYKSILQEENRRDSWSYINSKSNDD

Row | IC50 (Integrin alpha-4/beta-1 [1]) [nM] | IC50 (Integrin alpha-4/beta-1 [2]) [nM] | SMILES
1 | 200 |  | Cc1cc(C(F)(F)F)c(C(=O)N[C@@H](Cc2ccc(NC(=O)c3c(Cl)cccc3Cl)cc2)C(=O)O)c(C)n1
2 | 160 |  | CS(=O)(=O)c1ccccc1C(=O)N[C@@H](Cc1ccc(NC(=O)c2c(Cl)cccc2Cl)cc1)C(=O)O
3 | 1300 |  | O=C(N[C@@H](Cc1ccc(NC(=O)c2c(Cl)cccc2Cl)cc1)C(=O)O)c1ccc(Br)cc1Cl
4 | 180 | 2 | Cc1ncccc1C(=O)N[C@@H](Cc1ccc(NC(=O)c2c(Cl)cccc2Cl)cc1)C(=O)O
5 | 450 | 8.8 | O=C(N[C@@H](Cc1ccc(NC(=O)c2c(Cl)cccc2Cl)cc1)C(=O)O)c1cc(C(F)(F)F)ccc1Cl
6 | 23 | 0.89 | Cc1ccnc(C)c1C(=O)N[C@@H](Cc1ccc(NC(=O)c2c(Cl)cccc2Cl)cc1)C(=O)O
7 | 69 | 0.56 | Cc1nc(C(C)C)sc1C(=O)N[C@@H](Cc1ccc(NC(=O)c2c(Cl)cccc2Cl)cc1)C(=O)O
8 | 17 | 0.42 | CCCc1cccc(C)c1C(=O)N[C@@H](Cc1ccc(NC(=O)c2c(Cl)cccc2Cl)cc1)C(=O)O
9 | 460 |  | CC(C)c1cccc(C(C)C)c1C(=O)N[C@@H](Cc1ccc(NC(=O)c2c(Cl)cccc2Cl)cc1)C(=O)O
10 | 890 | 1.5 | O=C(N[C@@H](Cc1ccc(NC(=O)c2c(Cl)cccc2Cl)cc1)C(=O)O)c1sccc1Br
11 | 84 | 1.3 | Cc1cccc(C)c1C(=O)N[C@@H](Cc1ccc(NC(=O)c2c(Cl)cccc2Cl)cc1)C(=O)O
12 | 85 | 0.44 | Cc1cccc(F)c1C(=O)N[C@@H](Cc1ccc(NC(=O)c2c(Cl)cccc2Cl)cc1)C(=O)O
13 | 650 | 16 | O=C(N[C@@H](Cc1ccc(NC(=O)c2c(Cl)cccc2Cl)cc1)C(=O)O)c1ccccc1C(F)(F)F
14 | 1600 |  | O=C(N[C@@H](Cc1ccc(NC(=O)c2c(Cl)cccc2Cl)cc1)C(=O)O)c1cccc(Cl)c1Cl
15 | 100 | 0.4 | CSc1ccccc1C(=O)N[C@@H](Cc1ccc(NC(=O)c2c(Cl)cccc2Cl)cc1)C(=O)O
16 | 45 | 0.49 | O=C(N[C@@H](Cc1ccc(NC(=O)c2c(Cl)cccc2Cl)cc1)C(=O)O)c1ccccc1Br

Row | IC50 (Integrin alpha-4/beta-1 [1]) [nM] | IC50 (Integrin alpha-4/beta-1 [2]) [nM] | SMILES
17 |  | 1.9 | COc1ccc(C(=O)N[C@@H](Cc2ccc(NC(=O)c3c(Cl)cccc3Cl)cc2)C(=O)O)c(Cl)c1
18 | 12 | 0.3 | Cc1cccc(Cl)c1C(=O)N[C@@H](Cc1ccc(NC(=O)c2c(Cl)cccc2Cl)cc1)C(=O)O
19 |  | 0.4 | O=C(Nc1ccc(C[C@H](NC(=O)c2c(F)cccc2C(F)(F)F)C(=O)O)cc1)c1c(Cl)cccc1Cl
20 | 190 | 2 | O=C(N[C@@H](Cc1ccc(NC(=O)c2c(Cl)cccc2Cl)cc1)C(=O)O)c1cncnc1C(F)(F)F
21 | 580 | 15 | Cc1noc(C)c1C(=O)N[C@@H](Cc1ccc(NC(=O)c2c(Cl)cccc2Cl)cc1)C(=O)O
22 | 49 | 1.6 | CC(=O)c1cccc(Cl)c1C(=O)N[C@@H](Cc1ccc(NC(=O)c2c(Cl)cccc2Cl)cc1)C(=O)O
23 |  | 0.3 | CCc1cccc(C)c1C(=O)N[C@@H](Cc1ccc(NC(=O)c2c(Cl)cccc2Cl)cc1)C(=O)O
24 | 74 | 1.9 | CC(C)(C)c1ccccc1C(=O)N[C@@H](Cc1ccc(NC(=O)c2c(Cl)cccc2Cl)cc1)C(=O)O
25 | 1440 | 25 | Cc1nn(-c2ccccc2)nc1C(=O)N[C@@H](Cc1ccc(NC(=O)c2c(Cl)cccc2Cl)cc1)C(=O)O
26 | 6800 |  | COc1ccccc1C(=O)N[C@@H](Cc1ccc(NC(=O)c2c(Cl)cccc2Cl)cc1)C(=O)O
27 | 19 |  | COc1ccc(Br)c(C(=O)N[C@@H](Cc2ccc(NC(=O)c3c(Cl)cccc3Cl)cc2)C(=O)O)c1
28 | 460 | 11 | Cc1ccc(Cl)c(C(=O)N[C@@H](Cc2ccc(NC(=O)c3c(Cl)cccc3Cl)cc2)C(=O)O)c1
29 | 1300 |  | Cc1cccc(C(=O)N[C@@H](Cc2ccc(NC(=O)c3c(Cl)cccc3Cl)cc2)C(=O)O)c1Cl
30 | 67 | 1.2 | O=C(N[C@@H](Cc1ccc(NC(=O)c2c(Cl)cccc2Cl)cc1)C(=O)O)c1c(F)cccc1F
31 | 1000 |  | CNc1ccccc1C(=O)N[C@@H](Cc1ccc(NC(=O)c2c(Cl)cccc2Cl)cc1)C(=O)O
